In test [1] the test system is E. coli ELZ4251. The test is described as follows: Antibacterial activity, MIC, multi-drug resistant clinical isolate (Table 3). It is filed as cell-based. Conditions: Escherichia coli. The procedure, abridged: (§1)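 MIC (μg/mL) read as lowest concentration with no macroscopically visible growth, determined by microbroth dilution.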
The test system of test [2] is E. coli ELZ4000. Described as above. Conditions: Escherichia coli, ELZ4000, read-out: MIC ELZ4000. It is filed as cell-based. The essentials:
as §1

Test [3] relates to Staphylococcus aureus (S. aureus) 29213. Description: Antibacterial activity, microbroth dilution MIC (Table 1). The format is cell-based. The following applies: microbroth dilution, Gram-positive S. aureus 29213, read-out: MIC, 29213. The procedure, abridged: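 Values are MICs (μg/mL): the smallest drug amount at which macroscopically visible bacterial growth is absent under assay conditions, from a microdilution method in broth.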

Test [4] deals with Escherichia coli (E. coli) BAS849. The test is described as above. The format is cell-based. Conditions: microbroth dilution, super sensitive Gram-negative E. coli BAS849, read-out: MIC, BAS849. The essentials: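 Read-out: visual absence of growth. The lowest concentration meeting this gives the MIC, expressed in μg/mL, with microbroth dilution as the method.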
The test system of test [5] is K. pneumoniae MXX1232. The test is described as follows: Antibacterial activity, MIC, resistant strain (Table 4). It is filed as cell-based. Conditions: Klebsiella pneumoniae, MXX1232; resistant K. pneumoniae MMX1232, multi-drug resistant clinical isolate; read-out: MIC, MMX1232. The procedure, abridged:
(§2)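 Broth microdilution; MIC (μg/mL) = lowest concentration with no macroscopically visible growth. Resistant strains: multi-drug resistant clinical isolates.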

In test [6] the test system is A. baumannii MXX2240. The description is as above. It is filed as cell-based. The following applies: Acinetobacter baumannii, MXX2240; resistant A. baumannii MMX2240, multi-drug resistant clinical isolate; read-out: MIC, MMX2240. The procedure, abridged: as §2
For test [7], the system named is E. coli LZ3111. The test is described as follows: Antibacterial activity, MIC, quinolone resistant strain (Table 2). The format is cell-based. Conditions: Escherichia coli, LZ3111, read-out: MIC LZ3111. The procedure, abridged: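 Broth microdilution. Read-out: MIC in μg/mL, taken as lowest concentration with no macroscopically visible growth.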
In test [8] the test system is Pseudomonas aeruginosa (P. aeruginosa) 27853. Description: Antibacterial activity, MIC (Table 5). The format is cell-based. Conditions: P. aeruginosa 27853, read-out: MIC, 27853. The essentials:
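Microbroth dilution; MIC (μg/mL) = lowest concentration with no macroscopically visible growth.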

The subject of test [9] is Neisseria meningitidis (N. meningitidis) 13090. The test is described as follows: Antibacterial activity, MIC (Table 8). It is filed as cell-based. The essentials: (§3)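 Values are minimum inhibitory concentrations in μg/mL, read as the lowest compound concentration at which no growth is visible to the eye. Testing used a microbroth dilution format.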
The subject of test [10] is E. coli 25922. The test is described as follows: Antibacterial activity, microbroth dilution MIC (Table 1). The format is cell-based, Escherichia coli. The following applies: Escherichia coli; microbroth dilution; control Gram-negative E. coli 25922 strain; read-out: MIC, 25922. The procedure, abridged:
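Growth inhibition by microbroth dilution. MIC = lowest μg/mL with no visible growth. Strain 25922 is the control Gram-negative; BAS849 is hypersensitive.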

The subject of test [11] is Haemophilus influenzae (H. influenzae) 49247. The test is described as follows: Antibacterial activity, MIC (Table 6). The format is cell-based. The procedure, abridged:
as §3

Test [12] deals with Klebsiella pneumoniae (K. pneumoniae) 35657. Description: Antibacterial activity, MIC (Table 4). Conditions: K. pneumoniae 35657, read-out: MIC, 35657. The format is cell-based. The procedure, abridged: as §2
The subject of test [13] is Acinetobacter baumannii (A. baumannii) BAA747. Description: Antibacterial activity, MIC (Table 4). The format is cell-based. Conditions: A. baumannii BAA747, read-out: MIC, BAA747. The essentials:
as §2

Test [14] concerns Moraxella catarrhalis (M. catarrhalis) 25238. Description: Antibacterial activity, MIC (Table 7). The format is cell-based. The essentials:
as §3

Among the data in US9409905B2, “Antibacterial compounds and methods for use” (PTC THERAPEUTICS, INC., priority 2011, dated 2016) are MIC values, retold here.

Values after ≈ are worked out from the molar mass of the structure shown.

`CCc1c(-c2ccc3c(c2)cc(CN2C[C@H]4CCC[C@@H](N(C)C)[C@H]4C2)n3C)[nH]c(=O)c(C(=O)O)c1O` [Cpd 279, 6-(2-(((3aR,4R,7aS)-4-(dimethylamino)-1H-isoindol-2(3H,3aH,4H,5H,6H,7H,7aH)-yl)methyl)-1-methyl-1H-indol-5-yl)-5-ethyl-4-hydroxy-2-oxo-1,2-dihydropyridine-3-carboxylic acid]: the MIC in [1] was 12.5 to 150 µg/mL (≈ 25.4 to 304 µM); in test [2], 12.5 to 150 µg/mL (≈ 25.4 to 304 µM); in [3] it was 3.5 to 12.5 µg/mL (≈ 7.1 to 25.4 µM); in [4] it was less than 1 µg/mL; in [5], 12.5 to 150 µg/mL (≈ 25.4 to 304 µM); in test [6], 12.5 to 150 µg/mL (≈ 25.4 to 304 µM). Besides, the MIC in [7] is 1 to 3.5 µg/mL (≈ 2.03 to 7.1 µM); in [8] it was 12.5 to 150 µg/mL (≈ 25.4 to 304 µM); in [9], less than 1 µg/mL; in test [10], 1 to 3.5 µg/mL (≈ 2.03 to 7.1 µM); in test [11], 1 to 3.5 µg/mL (≈ 2.03 to 7.1 µM); in [12] it was 1 to 3.5 µg/mL (≈ 2.03 to 7.1 µM). The MIC in test [13] and in [14] was 1 to 3.5 µg/mL (≈ 2.03 to 7.1 µM) in each case.

`CCc1c(-c2ccc3c(c2)cc(CN2C[C@H]4CCC[C@@H](NC)[C@H]4C2)n3C)[nH]c(=O)c(C(=O)O)c1O` [Cpd 282, 5-ethyl-4-hydroxy-6-(1-methyl-2-(((3aR,4R,7aS)-4-(methylamino)-1H-isoindol-2(3H,3aH,4H,5H,6H,7H,7aH)-yl)methyl)-1H-indol-5-yl)-2-oxo-1,2-dihydropyridine-3-carboxylic acid]: the MIC was 3.5 to 12.5 µg/mL (≈ 7.31 to 26.1 µM) in test [1]; 12.5 to 150 µg/mL (≈ 26.1 to 313 µM) in [2]; 12.5 to 150 µg/mL (≈ 26.1 to 313 µM) in test [3]; less than 1 µg/mL in test [4]; 12.5 to 150 µg/mL (≈ 26.1 to 313 µM) in [5]; 12.5 to 150 µg/mL (≈ 26.1 to 313 µM) in test [6]. In addition, the MIC in [7] was 1 to 3.5 µg/mL (≈ 2.09 to 7.31 µM); in [8] it was 12.5 to 150 µg/mL (≈ 26.1 to 313 µM); in [9] it was 1 to 3.5 µg/mL (≈ 2.09 to 7.31 µM); in test [10], less than 1 µg/mL; in test [11], 1 to 3.5 µg/mL (≈ 2.09 to 7.31 µM); in test [12], 1 to 3.5 µg/mL (≈ 2.09 to 7.31 µM). Besides, the MIC was 12.5 to 150 µg/mL (≈ 26.1 to 313 µM) in test [13] and 3.5 to 12.5 µg/mL (≈ 7.31 to 26.1 µM) in test [14].

Take `CCc1c(-c2ccc3c(c2)cc(CN2C[C@H]4C[C@@H](N(C)C)C[C@H]4C2)n3C)[nH]c(=O)c(C(=O)O)c1O` [Cpd 285, 6-(2-(((3aR,5r,6aS)-5-(dimethylamino)hexahydrocyclopenta[c]pyrrol-2(1H)-yl)methyl)-1-methyl-1H-indol-5-yl)-5-ethyl-4-hydroxy-2-oxo-1,2-dihydropyridine-3-carboxylic acid]: the MIC was 3.5 to 12.5 µg/mL (≈ 7.31 to 26.1 µM) in [1]; 12.5 to 150 µg/mL (≈ 26.1 to 313 µM) in test [2]; 12.5 to 150 µg/mL (≈ 26.1 to 313 µM) in test [3]; less than 1 µg/mL in test [4]; 12.5 to 150 µg/mL (≈ 26.1 to 313 µM) in [5]; 12.5 to 150 µg/mL (≈ 26.1 to 313 µM) in [6]. Further, the MIC was 1 to 3.5 µg/mL (≈ 2.09 to 7.31 µM) in [7]; 12.5 to 150 µg/mL (≈ 26.1 to 313 µM) in test [8]; less than 1 µg/mL in test [9]; 1 to 3.5 µg/mL (≈ 2.09 to 7.31 µM) in test [10]; 1 to 3.5 µg/mL (≈ 2.09 to 7.31 µM) in test [11]; 1 to 3.5 µg/mL (≈ 2.09 to 7.31 µM) in test [12]. Besides, the MIC in test [13] was 3.5 to 12.5 µg/mL (≈ 7.31 to 26.1 µM); in [14] it was 1 to 3.5 µg/mL (≈ 2.09 to 7.31 µM).

`CCc1c(-c2ccc3c(c2)cc(CN)n3C)[nH]c(=O)c(C(=O)O)c1O` [Cpd 290, 6-(2-(aminomethyl)-1-methyl-1H-indol-5-yl)-5-ethyl-4-hydroxy-2-oxo-1,2-dihydropyridine-3-carboxylic acid]: the MIC in test [1] is 3.5 to 12.5 µg/mL (≈ 10.3 to 36.6 µM); in test [2], 3.5 to 12.5 µg/mL (≈ 10.3 to 36.6 µM); in test [3] it was 3.5 to 12.5 µg/mL (≈ 10.3 to 36.6 µM); in [4] it was less than 1 µg/mL; in [5], 12.5 to 150 µg/mL (≈ 36.6 to 439 µM); in test [6] it was 12.5 to 150 µg/mL (≈ 36.6 to 439 µM). For the same molecule, the MIC was 1 to 3.5 µg/mL (≈ 2.93 to 10.3 µM) in test [7]; 1 to 3.5 µg/mL (≈ 2.93 to 10.3 µM) in [8]; less than 1 µg/mL in test [9]; less than 1 µg/mL in test [10]; 1 to 3.5 µg/mL (≈ 2.93 to 10.3 µM) in [11]; 3.5 to 12.5 µg/mL (≈ 10.3 to 36.6 µM) in test [12]. For the same molecule, the MIC in test [13] and in test [14] was 1 to 3.5 µg/mL (≈ 2.93 to 10.3 µM) in each case.

For `CCc1c(-c2ccc3c(c2)cc(CNCc2ccc(OC)cc2)n3C)[nH]c(=O)c(C(=O)O)c1O` [Cpd 291, 5-ethyl-4-hydroxy-6-(2-((4-methoxybenzylamino)methyl)-1-methyl-1H-indol-5-yl)-2-oxo-1,2-dihydropyridine-3-carboxylic acid], the MIC in [1] is 12.5 to 150 µg/mL (≈ 27.1 to 325 µM); in test [2], 12.5 to 150 µg/mL (≈ 27.1 to 325 µM); in [3] it was 3.5 to 12.5 µg/mL (≈ 7.58 to 27.1 µM); in test [4], less than 1 µg/mL; in test [5] it was 12.5 to 150 µg/mL (≈ 27.1 to 325 µM); in [6], 1 to 3.5 µg/mL (≈ 2.17 to 7.58 µM). Besides, the MIC in test [7] is 1 to 3.5 µg/mL (≈ 2.17 to 7.58 µM); in [8] it was 12.5 to 150 µg/mL (≈ 27.1 to 325 µM); in test [9], less than 1 µg/mL; in test [10], less than 1 µg/mL; in test [11], less than 1 µg/mL; in test [12], 3.5 to 12.5 µg/mL (≈ 7.58 to 27.1 µM). Besides, the MIC in test [13] was 1 to 3.5 µg/mL (≈ 2.17 to 7.58 µM); in test [14], less than 1 µg/mL.
